Where two headings read alike, the source gives them in different places.
Test system: Ba/F3-Flt3-transfected cells in the presence of 10 ng/ml murine IL3
Test: Ba/F3-Flt3 (plus IL3) cellular proliferation counterscreen, Alamar Blue
Format: cell-based
Conditions: Mus musculus, read-out: BAF3-FLT3 (PLUS IL3) 96 well pIC50 (converted)

SMILES	IC50 (plus 10 ng/ml murine IL3) [µM]	IC50 (plus IL3, 96 well) [µM]
COc1cc(OC)cc(N(CC2CC2)c2ccc3ncc(C(=O)Nc4cncn4C)nc3c2)c1 [Compound 27]	> 10	–
COc1cc(OC)cc(N(CC2CC2)c2ccc3ncc(-c4ccc5[nH]ccc5c4)nc3c2)c1 [Compound 86]	–	> 10
COc1cc(OC)cc(N(CC2CC2)c2ccc3ncc(C(=O)N4CCC4)nc3c2)c1 [Compound 93]	> 10	–
COc1cc(OC)cc(N(CC2CC2)c2ccc3ncc(N4CCN(CCO)CC4)nc3c2)c1 [Compound 49]	> 10	–
COc1cc(OC)cc(N(CC2CC2)c2ccc3ncc(-n4cccn4)nc3c2)c1 [Compound 95]	> 10	–
COc1cc(OC)cc(N(CC2CC2)c2ccc3ncc(N4CCOCC4)nc3c2)c1 [Compound 63]	–	> 10
COc1cc(OC)cc(N(CC2CC2)c2ccc3ncc(C#Cc4cncn4C)nc3c2)c1 [Compound 22]	–	> 10
COc1cc(OC)cc(N(CC2CC2)c2ccc3ncc(-c4c[nH]cn4)nc3c2)c1 [Compound 39]	> 10	–
COc1cc(OC)cc(N(CC2CC2)c2ccc3ncc(-c4nnc(C)o4)nc3c2)c1 [Compound 85]	–	> 10
COc1cc(OC)cc(N(CC2CC2)c2ccc3ncc(-c4cccc(N5CCOCC5)c4)nc3c2)c1 [Compound 92]	> 10	–
COc1cc(OC)cc(N(CC2CC2)c2ccc3ncc(-c4ccnc(N5CCN(C)CC5)c4)nc3c2)c1 [Compound 37]	–	~4.68
COc1cc(OC)cc(N(CC2CC2)c2ccc3ncc(NC(=O)c4ccc(F)cc4)nc3c2)c1 [Compound 28]	> 10	–
COc1cc(OC)cc(N(CC2CC2)c2ccc3ncc(-c4cnc5[nH]ccc5c4)nc3c2)c1 [Compound 88]	–	> 10
COc1cc(OC)cc(N(CC2CC2)c2ccc3ncc(N4CCN(C)CC4)nc3c2)c1 [Compound 64]	–	> 10
COc1cc(OC)cc(N(CC2CC2)c2ccc3ncc(-c4ccnc(N5CCOCC5)c4)nc3c2)c1 [Compound 90]	–	> 10
